Structures are written as SMILES.

In one test the test system is MiaPaCa2 cells. In words: cell-based HT lactate assay by colorimetric/fluorometric detection (cellular inhibition of lactate production). The following applies: Homo sapiens, MIA PaCa-2, assay of Example 6. A digest of the protocol: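 Miniaturised colorimetric/fluorometric lactate kit assay, about 3.5 h total, measuring cellular lactate production. MiaPaCa2 seeded at 500 cells/well, a density chosen so lactate falls near 90% of the standard curve range.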

For another test, the target named is Human LDHA (Homo sapiens (Human), UniProt P00338). Briefly: human LDHA primary biochemical assay. The following applies: biochemical LDHA inhibitory activity, assay of Example 1; activity level classes defined in nM. A digest of the protocol:
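Human LDHA at 2 nM with 0.06 mM NADH and 0.2 mM sodium pyruvate in 200 mM Tris HCl pH 7.4, 100 μM EDTA, 0.01% TWEEN-20 (final). NADH consumption coupled to resazurin/diaphorase (0.037 mM; 0.133 mg/mL); inhibition read by fluorescence.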

On to `N#Cc1ccc(-c2cccc(-c3nn(-c4nc(C(=O)O)cs4)c(CC4CC4)c3Cc3ccc(S(N)(=O)=O)c(F)c3)c2)cc1` [Compound 176, 2-(3-(4′-cyano-[1,1′-biphenyl]-3-yl)-5-(cyclopropylmethyl)-4-(3-fluoro-4-sulfamoylbenzyl)-1H-pyrazol-1-yl)thiazole-4-carboxylic acid], for which the values for the IC50 in the test with MiaPaCa2 cells and against Human LDHA were > 57 µM and < 100 nM, respectively.
For `NS(=O)(=O)c1ccc(Cc2c(-c3cccc(-c4cc(F)cc(F)c4)c3)nn(-c3nc(C(=O)O)cs3)c2CC2CC2)cc1F` [Compound 177, 2-(5-(cyclopropylmethyl)-3-(3′,5′-difluoro-[1,1′-biphenyl]-3-yl)-4-(3-fluoro-4-sulfamoylbenzyl)-1H-pyrazol-1-yl)thiazole-4-carboxylic acid], the 50% inhibitory concentration (IC50) was > 57 µM with MiaPaCa2 cells and < 100 nM at Human LDHA.
Take `CN(C)c1ccc(-c2cccc(-c3nn(-c4nc(C(=O)O)cs4)c(CC4CC4)c3Cc3ccc(S(N)(=O)=O)c(F)c3)c2)cc1` [Compound 178, 2-(5-(cyclopropylmethyl)-3-(4′-(dimethylamino)-[1,1′-biphenyl]-3-yl)-4-(3-fluoro-4-sulfamoylbenzyl)-1H-pyrazol-1-yl)thiazole-4-carboxylic acid]: the IC50 in the test on MiaPaCa2 cells is > 57 µM; at Human LDHA, < 100 nM.
On to `Cc1ccc(C#Cc2cccc(-c3nn(-c4nc(C(=O)NC#N)cs4)c(CC4CC4)c3Cc3ccc(S(N)(=O)=O)c(F)c3)c2)s1` [Compound 179, N-cyano-2-(5-(cyclopropylmethyl)-4-(3-fluoro-4-sulfamoylbenzyl)-3-(3-((5-methylthiophen-2-yl)ethynyl)phenyl)-1H-pyrazol-1-yl)thiazole-4-carboxamide], for which the IC50 in the test with MiaPaCa2 cells is > 57 µM; against Human LDHA, 1000 to 57000 nM.

In general, IC50 refers to the point on the concentration scale where inhibition reaches its midpoint.

(Values after US10954228B2 (NATIONAL INSTITUTES OF HEALTH, UNITED STATES DEPARTMENT OF …, priority 2016, dated 2021).)
